In the supplement of paper PMC10307832:

Key:
Test in all cases: relative viability (nuclei count vs DMSO), 5 days (fraction); higher = more cells survive
Olaparib + Navitoclax = compound: O=C(c1cc(Cc2n[nH]c(=O)c3ccccc23)ccc1F)N1CCN(C(=O)C2CC2)CC1 [Olaparib] + CC1(C)CCC(c2ccc(Cl)cc2)=C(CN2CCN(c3ccc(C(=O)NS(=O)(=O)c4ccc(N[C@H](CCN5CCOCC5)CSc5ccccc5)c(S(=O)(=O)C(F)(F)F)c4)cc3)CC2)C1 [Navitoclax] (partner 0.5 µM)
Outline: (§1)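 Lung cancer cell lines were pin-tool dosed in 1536-well plates on the day after seeding, with either a lone drug or a fixed anchor-drug dose plus five library-drug doses (not always all listed) in √10 steps. Nuclei were counted on 4× images after 5 days. Relative viability is the ratio of treated-well to vehicle-well nuclei counts, with each value a median of duplicate plates.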

Crizotinib + Vorinostat = compound: C[C@@H](Oc1cc(-c2cnn(C3CCNCC3)c2)cnc1N)c1c(Cl)ccc(F)c1Cl [Crizotinib] + O=C(CCCCCCC(=O)Nc1ccccc1)NO [Vorinostat] (partner 1 µM)
Outline: as §1

Olaparib + Alpelisib = compound: O=C(c1cc(Cc2n[nH]c(=O)c3ccccc23)ccc1F)N1CCN(C(=O)C2CC2)CC1 [Olaparib] + Cc1nc(NC(=O)N2CCC[C@H]2C(N)=O)sc1-c1ccnc(C(C)(C)C(F)(F)F)c1 [Alpelisib] (partner 2 µM)
Outline: as §1

Carfilzomib + Crizotinib = compound: CC(C)C[C@H](NC(=O)[C@H](CCc1ccccc1)NC(=O)CN1CCOCC1)C(=O)N[C@@H](Cc1ccccc1)C(=O)N[C@@H](CC(C)C)C(=O)[C@@]1(C)CO1 [Carfilzomib] + C[C@@H](Oc1cc(-c2cnn(C3CCNCC3)c2)cnc1N)c1c(Cl)ccc(F)c1Cl [Crizotinib] (partner 1 µM)
Outline: as §1

| Cell Line | relative viability (Olaparib + Navitoclax; first compound 0.08 µM) | relative viability (Olaparib + Navitoclax; first compound 0.253 µM) | relative viability (Olaparib + Navitoclax; first compound 2.53 µM) | relative viability (Olaparib + Navitoclax; first compound 8 µM) | relative viability (Crizotinib + Vorinostat; first compound 0.01 µM) | relative viability (Crizotinib + Vorinostat; first compound 0.03162 µM) | relative viability (Crizotinib + Vorinostat; first compound 0.1 µM) | relative viability (Crizotinib + Vorinostat; first compound 0.3162 µM) | relative viability (Crizotinib + Vorinostat; first compound 1 µM) | relative viability (Olaparib + Alpelisib; first compound 0.08 µM) | relative viability (Olaparib + Alpelisib; first compound 0.253 µM) | relative viability (Olaparib + Alpelisib; first compound 2.53 µM) | relative viability (Olaparib + Alpelisib; first compound 8 µM) | relative viability (Carfilzomib + Crizotinib; first compound 0.001 µM) | relative viability (Carfilzomib + Crizotinib; first compound 0.003162 µM) | relative viability (Carfilzomib + Crizotinib; first compound 0.01 µM) | relative viability (Carfilzomib + Crizotinib; first compound 0.03162 µM) | relative viability (Carfilzomib + Crizotinib; first compound 0.1 µM) |
| --- | --- | --- | --- | --- | --- | --- | --- | --- | --- | --- | --- | --- | --- | --- | --- | --- | --- | --- |
| 201T | 1.18 | 1.2 | 1.19 | 1.15 | 0.899 | 1.01 | 0.98 | 0.974 | 1.04 | 0.985 | 0.938 | 1.01 | 0.98 | 1.02 | 1.1 | 1.04 | 1.06 | 0.91 |
| A549 | 1.33 | 0.991 | 0.81 | 0.597 | – | – | – | – | – | 0.822 | 0.63 | 0.671 | 0.589 | 0.802 | 0.776 | 0.743 | 0.182 | 0.0494 |
| A-427 | 0.946 | 0.93 | 0.526 | 0.554 | 0.836 | 0.871 | 0.876 | – | 0.899 | 1.14 | 1.06 | 0.855 | 0.809 | 0.837 | 0.996 | 0.862 | 0.212 | 0.122 |
| ABC-1 | – | – | – | – | 1.04 | 1.06 | 1.22 | – | 1.02 | 0.958 | 1 | 0.96 | 0.981 | 1.15 | 0.805 | 0.385 | 0.177 | 0.172 |
| BEN | 0.0771 | 0.0609 | 0.0668 | 0.0792 | 0.553 | 0.55 | 0.628 | 0.506 | 0.573 | 1.02 | 1.02 | 1.19 | 0.995 | 0.898 | 1.18 | 0.923 | 0.757 | 0.311 |
| CAL-12T | 1.35 | 1.19 | 1.41 | 1.08 | 0.855 | 0.788 | 0.647 | 0.713 | 0.725 | 1.79 | 1.03 | 1.25 | 1.12 | – | 0.814 | 0.72 | 0.18 | 0.0912 |
| Calu-6 | 0.859 | 0.741 | 0.764 | 0.506 | – | – | – | – | – | 1.08 | 1.04 | 0.965 | 0.729 | 0.747 | 0.834 | 0.811 | 0.334 | 0.0815 |
| ChaGo-K-1 | 1.44 | 0.989 | 0.953 | 0.848 | 0.703 | 0.706 | 0.712 | 0.4 | 0.727 | – | – | – | – | – | 1.2 | 1.18 | 0.634 | 0.303 |
| EBC-1 | 0.46 | 0.403 | 0.44 | 0.318 | – | – | – | – | – | 0.901 | 0.794 | 0.68 | 0.633 | 0.212 | 0.18 | 0.183 | 0.131 | 0.111 |
| LCLC-103H | – | – | – | – | 0.716 | 0.869 | 0.841 | 0.434 | 0.8 | 1 | 0.928 | 1.09 | 0.923 | 1.03 | 1.01 | 1.07 | 0.888 | 0.204 |
| NCI-H358 | – | – | – | – | 0.793 | 0.658 | 0.718 | 0.725 | 0.697 | 0.862 | 0.808 | 0.868 | 0.773 | 0.712 | 0.802 | 0.525 | 0.104 | 0.144 |
| NCI-H522 | – | – | – | – | 0.851 | 1.03 | 0.803 | 0.877 | 0.867 | – | – | – | – | – | – | – | – | – |
| NCI-H650 | – | – | – | – | 0.528 | 0.414 | 0.396 | – | 0.444 | 1.33 | 1.17 | 1.04 | 0.84 | 0.677 | 0.996 | 0.698 | 0.577 | 0.132 |
| NCI-H661 | – | – | – | – | 0.706 | 0.777 | 0.731 | 0.841 | 0.775 | 0.87 | 0.511 | 0.618 | 0.455 | 0.861 | 0.971 | 1.01 | 0.985 | 0.867 |
| NCI-H1299 | 1.07 | 0.995 | 1.04 | 0.944 | – | – | – | – | – | 1.03 | 1 | 1.07 | 1.03 | 1.01 | 0.966 | 0.981 | 0.472 | 0.178 |
| NCI-H1395 | 1.27 | 0.937 | 0.776 | 0.573 | 0.602 | 0.827 | 0.794 | 0.53 | 0.554 | 1 | 0.748 | 0.662 | 0.504 | – | – | – | – | – |
| NCI-H1563 | – | – | – | – | – | – | – | – | – | 1.04 | 0.952 | 0.929 | 0.973 | 0.939 | 0.902 | 0.897 | 0.711 | 0.397 |
| NCI-H1648 | – | – | – | – | – | 0.412 | 0.341 | 0.506 | 0.619 | – | – | – | – | – | – | – | – | – |
| NCI-H1650 | 1.7 | 1.1 | 1.24 | 1.11 | 0.471 | 0.594 | 0.527 | 0.68 | 0.619 | – | – | – | – | – | 0.839 | 0.642 | 0.114 | 0.139 |
| NCI-H1703 | 1.29 | 1.06 | 1.05 | 1.43 | – | – | – | – | – | 0.45 | 0.464 | 0.391 | 0.412 | 0.579 | 0.73 | 0.168 | 0.0733 | 0.0878 |
| NCI-H1792 | 0.666 | 0.555 | 0.505 | 0.512 | – | – | – | – | – | 0.675 | 0.596 | 0.56 | 0.506 | 0.946 | 0.938 | 1.01 | 0.985 | 0.642 |
| NCI-H2342 | – | – | – | – | 0.799 | 0.844 | 0.714 | 0.713 | 0.814 | – | – | – | – | – | – | – | – | – |
| SW 900 | – | – | – | – | 0.422 | 0.615 | 0.511 | 0.481 | 0.712 | – | – | – | – | – | – | – | – | – |
